Values of other authors as cited in publication PMC2747598 (Journal of the American Chemical Society, 2009).

Test system: HeLa cells
Conditions: unconjugated complexes

| Compound | Mode of cellular uptake |
| --- | --- |
| Ru(phen)(bpy′)(dppz)^2+ | enter by passive diffusion and do not exhibit punctate staining |
| [Ru+2].c1ccc(-c2ccccn2)nc1.c1ccc(-c2ccccn2)nc1.c1ccc2nc3c4cccnc4c4ncccc4c3nc2c1 [Ru(bpy)2dppz^2+] | enter by passive diffusion and do not exhibit punctate staining |
| Ru(phen)2dppz^2+ | enter by passive diffusion and do not exhibit punctate staining |
